# Experimental data published in patent US6730503B1 (Roche Vitamins Inc., priority 1996, dated 2004).
# Read-outs that look alike come from different tables or passages of the source.
# B1: Gluconobacter oxydans DSM No. 4025 alcohol/aldehyde dehydrogenase Enzyme A, wild type, SEQ ID NO: 5 (Ketogulonicigenium vulgare WSH-001) (protein)
# chain: QVTPVTDELLANPPAGEWISYGQNQENYRHSPLTQITTENVGQLQLVWARGMQPGKVQVTPLIHDGVMYLANPGDVIQAIDAKTGDLIWEHRRQLPNIATLNSFGEPTRGMALYGTNVYFVSWDNHLVALDTATGQVTFDVDRGQGEDMVSNSSGPIVANGVIVAGSTCQYSPFGCFVSGHDSATGEELWRNYFIPRAGEEGDETWGNDYEARWMTGAWGQITYDPVTNLVHYGSTAVGPASETQRGTPGGTLYGTNTRFAVRPDTGEIVWRHQTLPRDNWDQECTFEMMVTNVDVQPSTEMEGLQSINPNAATGERRVLTGVPCKTGTMWQFDAETGEFLWARDTNYQNMIESIDENGIVTVNEDAILKELDVEYDVCPTFLGGRDWPSAALNPDSGIYFIPLNNVCYDMMAVDQEFTSMDVYNTSNVTKLPPGKDMIGRIDAIDISTGRTLWSVERAAANYSPVLSTGGGVLFNGGTDRYFRALSQETGETLWQTRLATVASGQAISYEVDGMQYVAIAGGGVSYGSGLNSALAGERVDSTAIGNAVYVFALPQ
# Key:
# [1] = system: Gluconobacter oxydans DSM No. 4025 AADH chimera Enzyme sA2 (Enzyme A residues 1-135, Enzyme B residues 136-180, Enzyme A residues 180-556; parents SEQ ID NO: …); assay: Kinetic properties of chimera Enzyme sA2; type: biochemical; conditions: read-out: Km (glucose)
# Source text: (§1) To further improve the chimeras, Enzyme A/B21, Enzyme A/B22, Enzyme A/B25 and Enzyme A/B31 in the view point of the preferable codon usage, the C-terminal two thirds consisting of Enzyme B residues were replaced with the C-terminal two thirds consisting of Enzyme A residues. Enzyme A/B21, Enzyme A/B22, Enzyme A/B25 and Enzyme A/B31 genes were used for constructing new chimera genes of Enzyme sA21 (Enzyme A ammo acid residue Nos. 1-128, Enzyme B amino acid residue Nos. 129-180 and Enzyme A amino acid residue Nos. 180-556), Enzyme sA22 (Enzyme A amino acid residue Nos. 1-125, Enzyme B amino acid residue Nos. 126-180 and Enzyme A amino acid residue Nos. 180-556), Enzyme sA2 (Enzyme A amino acid residue Nos. 1-135, Enzyme B amino acid residue Nos. 136-180 and Enzyme A amino acid residue Nos. 180-556) and Enzyme sB (Enzyme A amino acid residue Nos. 1-95, Enzyme B amino acid residue Nos. 96-180 and Enzyme A amino acid residue Nos. 180-556) (FIG. 4). […]
# [2] = system: Enzyme B; assay: Effect of metals and inhibitors on enzyme activity, PMS-DCIP assay; type: biochemical, G. oxydans DSM No. 4025
# [3] = system: Enzyme A; assay: as above; type: biochemical, G. oxydans DSM No. 4025
# [4] = system: Enzyme A″; assay: as above; type: biochemical, G. oxydans DSM No. 4025
# [5] = system: Enzyme A′; assay: as above; type: biochemical, G. oxydans DSM No. 4025
# [6] = biological target: T1, Gluconobacter oxydans DSM No. 4025 alcohol/aldehyde dehydrogenase Enzyme B, SEQ ID NO: 8 (Ketogulonicigenium vulgare, UniProt F9Y8N6); assay: Effect of inhibitors on activity of Enzyme B (PMS-DCIP assay, substrate D-sorbitol); type: biochemical; conditions: 10 mM inhibitor, 30 minutes at 25° C., pH 7.5, relative to blank incubation
# T1 construct: 579 aa precursor with 23 aa signal peptide; PMS-DCIP assay with D-sorbitol
# T1 sequence (F9Y8N6 24-579): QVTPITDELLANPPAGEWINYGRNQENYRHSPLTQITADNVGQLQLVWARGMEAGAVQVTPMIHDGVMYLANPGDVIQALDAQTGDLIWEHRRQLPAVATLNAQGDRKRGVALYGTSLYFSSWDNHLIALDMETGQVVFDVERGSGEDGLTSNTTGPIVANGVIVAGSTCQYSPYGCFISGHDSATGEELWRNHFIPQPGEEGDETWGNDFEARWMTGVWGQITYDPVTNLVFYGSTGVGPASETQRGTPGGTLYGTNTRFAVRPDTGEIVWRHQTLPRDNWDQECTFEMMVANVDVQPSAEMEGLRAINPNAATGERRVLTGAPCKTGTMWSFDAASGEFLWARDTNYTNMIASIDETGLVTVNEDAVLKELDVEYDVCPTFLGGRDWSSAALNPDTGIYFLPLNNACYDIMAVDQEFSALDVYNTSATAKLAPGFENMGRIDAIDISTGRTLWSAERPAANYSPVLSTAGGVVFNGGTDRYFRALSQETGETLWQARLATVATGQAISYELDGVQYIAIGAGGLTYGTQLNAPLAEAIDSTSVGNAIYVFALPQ
# Method: (§2) The enzymatic activity of the AADHs herein can be determined by methods known in the art, such as by photometric analysis using a spectrophotometer. In accordance with the present invention, one unit of enzyme activity was defined as the amount of enzyme which catalyzed the reduction of 1 μmole of DCIP per minute. The extinction coefficient of DCIP at pH 8.0 was taken as 15 mM^−1. […] A second cuvette, i.e., a reference cuvette, contains all the above components except the substrate. The reference cuvette is used to standardize the background absorbance resulting from a substrate-independent (endogenous) reaction.
# (§3) Enzyme activities of each clone (cell free extract, soluble fraction and membrane fraction) were measured by photometric analysis. The cells of each clone were inoculated in 5 ml of MB medium in a test tube and cultivated at 30° C. for 24 hours. The resulting broth was transferred into 200 ml of fresh MB medium in 500 ml flask and the flask was shaken on the rotary flask shaker at 30° C. for 24 hours. […] Substrate-dependent decreasing rate of absorbance of DCIP at 600 nm was measured at 25° C. by using a Kontron spectrophotometer UVIKON 810.
# (§4) The enzyme (about 0.05 mg/ml) in 25 mM HEPES buffer, pH 7.5, containing 5% sucrose was incubated with metal or inhibitor for 30 minutes at 25° C. […] Remaining activity is expressed as relative activity against blank incubation.
# [7] = biological target: T2, Gluconobacter oxydans DSM No. 4025 alcohol/aldehyde dehydrogenase Enzyme A′, SEQ ID NO: 6 (Ketogulonicigenium vulgare, UniProt F9Y5Q6); assay: Effect of inhibitors on activity of Enzyme A′ (PMS-DCIP assay, substrate n-propanol); type: biochemical; conditions: 10 mM inhibitor, 30 minutes at 25° C., pH 7.5, relative to blank incubation
# T2 construct: 579 aa precursor with 23 aa signal peptide; PMS-DCIP assay with n-propanol
# T2 sequence (F9Y5Q6 with tags, fused parts or gaps): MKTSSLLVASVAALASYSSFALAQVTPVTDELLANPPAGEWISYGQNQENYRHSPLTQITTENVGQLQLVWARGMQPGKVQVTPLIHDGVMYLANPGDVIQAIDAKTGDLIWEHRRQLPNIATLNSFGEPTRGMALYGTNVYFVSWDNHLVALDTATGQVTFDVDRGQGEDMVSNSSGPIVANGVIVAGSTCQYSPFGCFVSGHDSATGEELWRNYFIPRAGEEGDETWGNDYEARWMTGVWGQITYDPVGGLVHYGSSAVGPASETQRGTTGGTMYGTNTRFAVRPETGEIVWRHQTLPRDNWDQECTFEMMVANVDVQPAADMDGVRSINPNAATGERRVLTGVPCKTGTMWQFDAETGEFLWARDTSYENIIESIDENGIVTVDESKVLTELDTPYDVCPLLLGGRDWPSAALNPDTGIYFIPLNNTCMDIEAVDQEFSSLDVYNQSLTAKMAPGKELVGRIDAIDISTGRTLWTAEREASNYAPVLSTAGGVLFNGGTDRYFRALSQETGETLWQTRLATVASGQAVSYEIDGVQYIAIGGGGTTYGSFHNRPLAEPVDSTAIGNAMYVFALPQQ
# Method: as §2, §3, §4
# [8] = system: Gluconobacter oxydans DSM No. 4025 AADH chimera Enzyme sB (Enzyme A residues 1-95, Enzyme B residues 96-180, Enzyme A residues 180-556; parents SEQ ID NO: …); assay: Kinetic properties of chimera Enzyme sB; type: biochemical; conditions: read-out: Km (sorbitol)
# Source text: as §1
# [9] = biological target: T3, Gluconobacter oxydans DSM No. 4025 alcohol/aldehyde dehydrogenase Enzyme B, wild type, SEQ ID NO: 8 (Ketogulonicigenium vulgare, UniProt F9Y8N6); assay: Kinetic properties of Enzyme B; type: biochemical
# T3 construct: 579 aa precursor with 23 aa signal peptide
# T3 sequence (F9Y8N6 24-579): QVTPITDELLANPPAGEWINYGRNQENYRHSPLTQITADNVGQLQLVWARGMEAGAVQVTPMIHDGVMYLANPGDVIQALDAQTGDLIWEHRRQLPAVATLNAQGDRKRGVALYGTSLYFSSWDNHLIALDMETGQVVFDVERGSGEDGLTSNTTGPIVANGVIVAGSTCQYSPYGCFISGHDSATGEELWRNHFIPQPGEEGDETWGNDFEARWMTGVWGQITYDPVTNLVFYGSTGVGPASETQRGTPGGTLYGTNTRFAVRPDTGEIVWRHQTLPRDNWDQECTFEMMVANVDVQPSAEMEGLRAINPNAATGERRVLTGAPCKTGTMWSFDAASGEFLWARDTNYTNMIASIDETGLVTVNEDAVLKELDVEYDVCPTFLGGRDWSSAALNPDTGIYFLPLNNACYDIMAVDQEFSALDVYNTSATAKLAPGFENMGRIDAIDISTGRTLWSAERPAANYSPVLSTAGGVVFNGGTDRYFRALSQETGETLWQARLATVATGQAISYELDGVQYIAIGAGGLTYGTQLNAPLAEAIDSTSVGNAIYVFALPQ
# Source text: Tables 11 and 12 summarizes the kinetic properties of chimera enzymes, Enzyme sA2 and Enzyme sB in comparison with Enzyme A and Enzyme B, respectively.
# [10] = substrate: OCC1(O)OC[C@H](O)[C@@H](O)[C@@H]1O; assay: purified protein, by the assay type; conditions: other: Enzyme A
# [11] = 1 mM compound, 30 minutes at 25° C., substrate D-Sorbitol, relative to blank incubation
# [12] = 1 mM compound, 30 minutes at 25° C., substrate L-Sorbose, relative to blank incubation
# [13] = 1 mM compound, 30 minutes at 25° C., substrate n-Propanol, relative to blank incubation
# [14] = 5 mM compound, 30 minutes at 25° C., substrate D-Sorbitol, relative to blank incubation
# [15] = 5 mM compound, 30 minutes at 25° C., substrate L-Sorbose, relative to blank incubation
# [16] = 5 mM compound, 30 minutes at 25° C., substrate n-Propanol, relative to blank incubation
# [17] = 0.5 mM compound, 30 minutes at 25° C., substrate L-Sorbose, relative to blank incubation
Molecule,"Relative remaining activity [2, 14]","Relative remaining activity [3, 15]","Relative remaining activity [4, 15]","Relative remaining activity [5, 16]",other results
OC[C@H]1OC(O)[C@H](O)[C@@H](O)[C@@H]1O (stereo partly drawn) [glucose],–,–,–,–,Km [1]: 20 mM
O=C(O)CI [ICH2COONa],–,–,–,–,"Relative remaining activity [2, 11]: 100.2; Relative remaining activity [3, 12]: 97.2; Relative remaining activity [4, 12]: 95.3; Relative remaining activity [5, 13]: 78.3"
[Cl-].[Cl-].[Zn+2] [ZnCl2],0.0,1.5,19.2,6.1,–
[Cl][Fe]([Cl])[Cl] [FeCl3],0.0,7.8,44.7,0.0,–
[Ca+2].[Cl-].[Cl-] [CaCl2],102.9,98.8,123.0,95.3,–
[Cl][Mn][Cl] [MmCl2],0.0,0.0,0.0,45.7,–
[Cl][Cu][Cl] [CuCL2],0.0,0.0,0.0,0.0,–
[Cl-].[Cl-].[Mg+2] [MgCl2],100.0,96.3,78.8,85.3,–
O=C(O)CN(CCOCCOCCN(CC(=O)O)CC(=O)O)CC(=O)O [EGTA],–,–,–,–,remaining activity at 10000 µM [6]: 74%; remaining activity at 10000 µM [7]: 16.7%
Cl.NO [Hydroxylamine-HCl],–,–,–,–,"Relative remaining activity ([2]; 0.5 mM compound, 30 minutes at 25° C., substrate D-Sorbitol, relative to blank incubation): 102.1; Relative remaining activity [3, 17]: 104.6; Relative remaining activity [4, 17]: 97.2; Relative remaining activity ([5]; 0.5 mM compound, 30 minutes at 25° C., substrate n-Propanol, relative to blank incubation): 98.8"
[Cl][Fe][Cl] [FeCl2],5.9,16.6,0.0,0.0,–
"OC[C@@H](O)[C@@H](O)[C@H](O)[C@@H](O)CO [sorbitol, D-sorbitol]",–,–,–,–,Km [8]: 61 mM
[Cl-].[Cl-].[Co+2] [CoCl2],–,–,–,–,Relative remaining activity [2]: 23.6; Relative remaining activity [3]: 16.6; Relative remaining activity [4]: 46.9; Relative remaining activity [5]: 7.9
"OCC1(O)OC[C@H](O)[C@@H](O)[C@@H]1O (stereo partly drawn) [sorbose, L-sorbose]",–,–,–,–,Ki [9]: 100 mM
O=S(=O)([O-])[O-].[Ni+2] [NiSO4],79.4,42.7,90.3,59.7,–
[F-].[Na+] [NaF],–,–,–,–,"Relative remaining activity [2, 11]: 100.8; Relative remaining activity [3, 12]: 98.2; Relative remaining activity [4, 12]: 94.9; Relative remaining activity [5, 13]: 97.1"
B1,–,–,–,–,Km [10]: 36 mM mM
